The record followed here is patent US11365192B2, “Pyridine compound substituted with azole” (TAISHO PHARMACEUTICAL CO., LTD., priority 2017, dated 2022).

What is called IC50 is the point on the concentration scale where inhibition reaches its midpoint.

One assay has as its target human CYP4F2 (Homo sapiens (Human), UniProt P78329). The assay is described as follows: Inhibition test against 20-HETE producing enzyme CYP4F2 (luciferine derivative, luminescence). Format: biochemical. Conditions: human CYP4F2, luciferine derivative, luminescence. The gist of the method: (§1)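 IC50 derived from luminescence after 60 min at room temperature with membrane fractions of E. coli expressing each human CYP (100 μg/mL protein). For CYP4A11, 60 μM luciferin derivative in 100 mM Tris-HCl pH 7.5 with NADPH-regenerating system; for CYP4F2, 2.5 μM substrate, 1 mM NADPH, 50 mM KPO4 pH 7.4.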

The next assay addresses human CYP4A11 (Homo sapiens (Human), UniProt Q02928). The assay is described as follows: Inhibition test against 20-HETE producing enzyme CYP4A11 (luciferine derivative, luminescence). Format: biochemical. Conditions: human CYP4A11, luciferine derivative, luminescence. The procedure, abridged:
as §1

Chain of human CYP4A11 (Q02928 5-519): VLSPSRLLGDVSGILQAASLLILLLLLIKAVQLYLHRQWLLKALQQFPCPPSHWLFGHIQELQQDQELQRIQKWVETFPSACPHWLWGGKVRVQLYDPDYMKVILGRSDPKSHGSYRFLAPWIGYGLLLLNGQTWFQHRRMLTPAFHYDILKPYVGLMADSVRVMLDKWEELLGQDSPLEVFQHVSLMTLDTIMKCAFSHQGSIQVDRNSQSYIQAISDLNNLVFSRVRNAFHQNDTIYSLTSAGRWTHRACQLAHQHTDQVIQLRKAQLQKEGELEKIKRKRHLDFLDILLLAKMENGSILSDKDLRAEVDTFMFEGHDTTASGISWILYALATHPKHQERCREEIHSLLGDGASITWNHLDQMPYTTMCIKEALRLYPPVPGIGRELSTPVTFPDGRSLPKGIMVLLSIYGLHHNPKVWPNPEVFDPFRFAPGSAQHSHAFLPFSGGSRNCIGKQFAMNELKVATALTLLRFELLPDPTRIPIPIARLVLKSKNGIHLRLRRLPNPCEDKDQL
Chain of human CYP4F2 (P78329 5-520): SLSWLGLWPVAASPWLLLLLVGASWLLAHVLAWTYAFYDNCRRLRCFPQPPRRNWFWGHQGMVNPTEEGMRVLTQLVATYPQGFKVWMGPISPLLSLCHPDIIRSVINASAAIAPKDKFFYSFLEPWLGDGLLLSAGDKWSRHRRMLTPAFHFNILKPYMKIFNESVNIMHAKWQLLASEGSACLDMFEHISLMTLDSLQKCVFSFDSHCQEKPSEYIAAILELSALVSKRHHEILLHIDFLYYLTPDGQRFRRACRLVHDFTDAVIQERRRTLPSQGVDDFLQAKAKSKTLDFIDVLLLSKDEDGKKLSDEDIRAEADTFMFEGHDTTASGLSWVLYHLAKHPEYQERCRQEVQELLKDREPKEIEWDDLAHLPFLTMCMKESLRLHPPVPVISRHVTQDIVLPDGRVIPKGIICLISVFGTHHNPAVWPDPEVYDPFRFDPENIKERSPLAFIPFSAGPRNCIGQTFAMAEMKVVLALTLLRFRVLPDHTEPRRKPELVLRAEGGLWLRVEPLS

`O=C(O)C1CC1c1ccc(CCOc2ccc(-c3ccn[nH]3)nc2)cc1F` (stereo not drawn) [Example 70-8]: the IC50 against human CYP4F2 was 120 nM; against human CYP4A11 it was 130 nM.
Take `O=C(O)C1CC1c1ccc(CCOc2ccc(-c3ccn[nH]3)nc2)cc1` (stereo not drawn) [Example 70-9]: the IC50 stood at 200 nM on human CYP4F2 and 210 nM against human CYP4A11.
As for `O=C(O)[C@H]1C[C@@H]1c1ccc(CCOc2ccc(-c3ccn[nH]3)nc2)cc1` [Example 70-10-2], the IC50 against human CYP4F2 amounted to 340 nM; against human CYP4A11, 450 nM.
As to `O=C(O)C1CC1c1ccc(COc2ccc(-c3ccn[nH]3)nc2)cc1F` (stereo not drawn) [Example 70-11, 2-[2-Fluoro-4-[[6-(1H-pyrazol-5-yl)pyridin-3-yl]oxymethyl]phenyl]cyclopropane-1-carboxylic Acid], the results for the IC50 at human CYP4F2 and at human CYP4A11 were 330 nM and 43 nM, respectively.
Turning to `CCC(OCCCCCCCOc1ccc(-c2ccn[nH]2)nc1)C(=O)O` (stereo not drawn) [Example 71-1, 2-[7-[6-(1H-Pyrazol-5-yl)pyridin-3-yl]oxyheptoxy]butanoic Acid], the figures for the IC50 against human CYP4F2 and on human CYP4A11 were 140 nM and 110 nM, respectively.
Regarding `CC[C@@H](OCCCCCCCOc1ccc(-c2ccn[nH]2)nc1)C(=O)O` [Example 71-2-1], the IC50 on human CYP4F2 came to 300 nM; against human CYP4A11, 170 nM.
As for `CC[C@H](OCCCCCCCOc1ccc(-c2ccn[nH]2)nc1)C(=O)O` [Example 71-2-2], the figures for the IC50 at human CYP4F2 and against human CYP4A11 were 90 nM and 87 nM, respectively.
With `O=C(O)COCCCCCCCOc1ccc(-c2ccn[nH]2)nc1` [Example 71-3], the results for the IC50 against human CYP4F2 and against human CYP4A11 were 320 nM and 230 nM, respectively.
The like results for `CC(OCCCCCCCOc1ccc(-c2ccn[nH]2)nc1)C(=O)O` (stereo not drawn) [Example 71-4] were, in that order, 200 nM and 270 nM.
As to `O=C(O)C1(OCCCCCCCOc2ccc(-c3ccn[nH]3)nc2)CC1` [Example 71-5], the figures for the IC50 against human CYP4F2 and against human CYP4A11 were 39 nM and 96 nM, respectively.
As to `O=C(O)C1CCc2cc(CCOc3ccc(-c4ccn[nH]4)nc3)ccc2O1` (stereo not drawn) [Example 71-7, 6-[2-[6-(1H-Pyrazol-5-yl)pyridin-3-yl]oxyethyl]-3,4-dihydro-2H-chromene-2-carboxylic Acid], the IC50 at human CYP4F2 came out at 550 nM; against human CYP4A11, 82 nM.
On to `O=C(O)[C@@H]1CCc2cc(CCOc3ccc(-c4ccn[nH]4)nc3)ccc2O1` [Example 71-8-1], for which the IC50 against human CYP4F2 turned out to be 430 nM; against human CYP4A11, 1000 nM.
Consider `O=C(O)[C@H]1CCc2cc(CCOc3ccc(-c4ccn[nH]4)nc3)ccc2O1` [Example 71-8-2], for which the IC50 at human CYP4F2 worked out at 560 nM; against human CYP4A11 it was 48 nM.
With `O=C(O)C1COc2cc(CCOc3ccc(-c4ccn[nH]4)nc3)ccc2C1` (stereo not drawn) [Example 71-9], the IC50 was found to be 870 nM on human CYP4F2 and 310 nM against human CYP4A11.
In the case of `O=C(O)C1COc2ccc(CCOc3ccc(-c4ccn[nH]4)nc3)cc2C1` (stereo not drawn) [Example 71-10], the IC50 was 260 nM on human CYP4F2 and 140 nM on human CYP4A11.
Turning to `O=C(O)C1CCc2c(COc3ccc(-c4ccn[nH]4)nc3)cccc2O1` (stereo not drawn) [Example 71-11], the figures for the IC50 against human CYP4F2 and against human CYP4A11 were 29000 nM and 22 nM, respectively.
`O=C(O)C1COc2c(CCOc3ccc(-c4ccn[nH]4)nc3)cccc2C1` (stereo not drawn) [Example 71-12]: the IC50 at human CYP4F2 is 1300 nM; at human CYP4A11 it was 18 nM.
Take `O=C(O)c1ccc(F)c(CCCOc2ccc(-c3ccn[nH]3)nc2)c1` [Example 71-13]: the IC50 was determined as 770 nM against human CYP4F2 and 51 nM against human CYP4A11.
On the same counts, the results for `O=C(O)c1cccc(CCCCCOc2ccc(-c3ccn[nH]3)nc2)n1` [Example 71-14] are 1300 nM and 150 nM.
Turning to `O=C(O)C1CC1c1ccc(COc2ccc(-c3ccn[nH]3)nc2)cc1` (stereo not drawn) [Example 71-15], the IC50 at human CYP4F2 is 1200 nM; at human CYP4A11 it was 84 nM.
Take `O=C(O)C1CC1c1ccc(CCOc2ccc(-c3ccn[nH]3)nc2)c(F)c1` (stereo not drawn) [Example 71-16]: the IC50 on human CYP4F2 is 91 nM; against human CYP4A11, 190 nM.
As for `O=C(O)C1CC(c2cccc(CCOc3ccc(-c4ccn[nH]4)nc3)c2)C1` (stereo not drawn) [Example 71-19], the results for the IC50 against human CYP4F2 and against human CYP4A11 were 540 nM and 53 nM, respectively.
On the same counts, the results for `O=C(O)C1CC(c2ccc(CCOc3ccc(-c4ccn[nH]4)nc3)cc2)C1` (stereo not drawn) [Example 71-20] are 190 nM and 500 nM.
For the compound `O=C(O)C1CCc2ccc(CCOc3ccc(-c4ccn[nH]4)nc3)cc2O1` (stereo not drawn) [Example 71-21, 7-[2-[6-(1H-Pyrazol-5-yl)pyridin-3-yl]oxyethyl]-3,4-dihydro-2H-chromene-2-carboxylic Acid], the results for the IC50 at human CYP4F2 and against human CYP4A11 were 190 nM and 330 nM, respectively.
On to `O=C(O)[C@H]1CCc2ccc(CCOc3ccc(-c4ccn[nH]4)nc3)cc2O1` [Example 71-22-1], for which the IC50 on human CYP4F2 turned out to be 310 nM; against human CYP4A11, 250 nM.
Take `O=C(O)[C@@H]1CCc2ccc(CCOc3ccc(-c4ccn[nH]4)nc3)cc2O1` [Example 71-22-2]: the IC50 on human CYP4F2 was 160 nM; at human CYP4A11, 1000 nM.
In the case of `O=C(O)C1COc2cc(COc3ccc(-c4ccn[nH]4)nc3)ccc2C1` (stereo not drawn) [Example 71-23], the IC50 at human CYP4F2 amounted to 550 nM; against human CYP4A11, 50 nM.
As to `O=C(O)C1CC1c1ccc(COc2ccc(-c3ccn[nH]3)nc2)c(F)c1` (stereo not drawn) [Example 71-24], the IC50 was 2100 nM against human CYP4F2 and 72 nM at human CYP4A11.
As to `CC(C)(Cc1ccc(COc2ccc(-c3ccn[nH]3)nc2)cc1)C(=O)O` [Example 71-25], the IC50 was 4800 nM against human CYP4F2 and 300 nM at human CYP4A11.
As for `O=C(O)C1(Cc2cccc(COc3ccc(-c4ccn[nH]4)nc3)c2F)COC1` [Example 71-26], the results for the concentration for half-maximal inhibition (IC50) against human CYP4F2 and at human CYP4A11 were 9700 nM and 39 nM, respectively.
In the case of `O=C(O)C1(Cc2cccc(CCOc3ccc(-c4ccn[nH]4)nc3)c2F)COC1` [Example 71-27], the IC50 against human CYP4F2 came out at 15000 nM; against human CYP4A11, 94 nM.
Consider `CC(C)(Cc1ccc(CCOc2ccc(-c3ccn[nH]3)nc2)cn1)C(=O)O` [Example 71-28], for which the values for the IC50 on human CYP4F2 and at human CYP4A11 were 6200 nM and 1600 nM, respectively.
On to `O=C(O)c1ccc(CCCCCOc2ccc(-c3ccn[nH]3)nc2)cn1` [Example 71-29], for which the IC50 against human CYP4F2 came out at 260 nM; against human CYP4A11, 110 nM.
On the same counts, the results for `CC(C)(Oc1ccc(CCOc2ccc(-c3ccn[nH]3)nc2)cc1)C(=O)O` [Example 71-30] are 11000 nM and 1900 nM.
Turning to `CC(C)(Oc1cccc(CCOc2ccc(-c3ccn[nH]3)nc2)c1)C(=O)O` [Example 71-31], the IC50 at human CYP4F2 was 15000 nM; on human CYP4A11, 300 nM.
Regarding `CC(C)(Oc1ccc(CCOc2ccc(-c3ccn[nH]3)nc2)cn1)C(=O)O` [Example 71-32], the results for the IC50 against human CYP4F2 and on human CYP4A11 were 23000 nM and 6200 nM, respectively.
Regarding `CC(C)(COc1ccc(CCOc2ccc(-c3ccn[nH]3)nc2)cn1)C(=O)O` [Example 71-33], the IC50 on human CYP4F2 came to 600 nM; at human CYP4A11 it was 1600 nM.
For the compound `CC(C)(Oc1cc(CCOc2ccc(-c3ccn[nH]3)nc2)ccn1)C(=O)O` [Example 71-34], the IC50 on human CYP4F2 was 36000 nM; on human CYP4A11 it was 1100 nM.
With `CC(C)(COc1cc(CCOc2ccc(-c3ccn[nH]3)nc2)ccn1)C(=O)O` [Example 71-35], the IC50 on human CYP4F2 came to 1900 nM; on human CYP4A11, 1400 nM.
In the case of `CC(C)(Oc1cccc(CCOc2ccc(-c3ccn[nH]3)nc2)n1)C(=O)O` [Example 71-36], the IC50 against human CYP4F2 was more than 50000 nM; on human CYP4A11 it was 260 nM.
With `CC(C)(COc1cccc(CCOc2ccc(-c3ccn[nH]3)nc2)n1)C(=O)O` [Example 71-37], the IC50 against human CYP4F2 was found to be 3500 nM; against human CYP4A11, 160 nM.
Consider `CC(C)(Oc1ccc(CCCOc2ccc(-c3ccn[nH]3)nc2)cn1)C(=O)O` [Example 71-38], for which the IC50 on human CYP4F2 came to 1900 nM; against human CYP4A11 it was 1400 nM.
Regarding `CC(C)(COc1ccc(CCCOc2ccc(-c3ccn[nH]3)nc2)cn1)C(=O)O` [Example 71-39], the IC50 on human CYP4F2 came out at 51 nM; against human CYP4A11 it was 780 nM.
In the case of `CC(C)(Oc1cccc(CCCOc2ccc(-c3ccn[nH]3)nc2)n1)C(=O)O` [Example 71-40], the values for the IC50 at human CYP4F2 and against human CYP4A11 were 8700 nM and 450 nM, respectively.
`CC(C)(COc1cccc(CCCOc2ccc(-c3ccn[nH]3)nc2)n1)C(=O)O` [Example 71-41]: the IC50 on human CYP4F2 was found to be 660 nM; against human CYP4A11 it was 160 nM.
On the same counts, the results for `CC(C)(Oc1cc(CCCOc2ccc(-c3ccn[nH]3)nc2)ccn1)C(=O)O` [Example 71-42] are 2100 nM and 630 nM.
Regarding `CC(C)(COc1cc(CCCOc2ccc(-c3ccn[nH]3)nc2)ccn1)C(=O)O` [Example 71-43], the IC50 was found to be 250 nM against human CYP4F2 and 870 nM against human CYP4A11.
Turning to `CC(=O)N1CC(CCCCCCCCOc2ccc(-c3ccn[nH]3)nc2)(C(=O)O)C1` [Example 71-44], the IC50 was determined as 37 nM on human CYP4F2 and 1000 nM on human CYP4A11.
The like results for `CC(C)(OCCCCCCCCOc1ccc(-c2ccn[nH]2)nc1)C(=O)O` [Example 72-1] were, in that order, 54 nM and 450 nM.
In the case of `O=C(O)C1(CCCCCCCCOc2ccc(-c3ccn[nH]3)nc2)CCOC1` (stereo not drawn) [Example 72-4], the IC50 against human CYP4F2 stood at 14 nM; on human CYP4A11, 150 nM.
As to `O=C(O)C1(CCCCCCCCOc2ccc(-c3ccn[nH]3)nc2)CCCO1` (stereo not drawn) [Example 72-5], the IC50 amounted to 43 nM on human CYP4F2 and 260 nM against human CYP4A11.
Turning to `O=C(O)C1(CCCCCCCCOc2ccc(-c3ccn[nH]3)nc2)CCS(=O)(=O)CC1` [Example 72-6], the IC50 on human CYP4F2 came to 9.4 nM; at human CYP4A11, 270 nM.
In the case of `O=C(O)C1(Cc2cccc(COc3ccc(-c4ccn[nH]4)nc3)c2F)CC1` [Example 72-7], the IC50 against human CYP4F2 stood at 15000 nM; on human CYP4A11, 14 nM.
For the compound `O=C(O)C1(Cc2cccc(CCOc3ccc(-c4ccn[nH]4)nc3)c2F)CC1` [Example 72-8], the IC50 came to 1700 nM on human CYP4F2 and 15 nM on human CYP4A11.
